According to patent publication US9937198B2, “Multi-functional composition and preparation method and application thereof” (Suzhou Sciscape Bio-Pharmaceutical Technology Co., Ltd., priority 2013, dated 2018):

How the values were obtained:
[1] = tested on: Male ICR mice; assay: In vivo absorption: blood glucose in fasted normal mice after intragastric administration; details: for Blood glucose level after administration: 13.3 mL/kg intragastric; for Blood glucose level before administration: baseline, mice fasted 12 h; for blood glucose level compared to the blank control group: before or after administration, normal mice
Experimental: Male ICR mice, 8 weeks old, 20±2 g in body weight, were purchased from Beijing HFK Bioscience Co., Ltd.
The composition used in the present experiment example was the solution of Composition 1. In particular, 15 g of trehalose and 3 mg of validamycin were picked and then dissolved in 100 mL of sterile water for medical use to provide the solution of Composition 1 which was kept for future use.
After normally fed for 3 days, the mice fasted for 12 h with water sufficiently supplied. Then, they were randomly divided into 4 groups depending on the blood glucose, i.e., a blank control group, an administration group, and negative control group 1 and negative control group 2. The mice in the administration group were intragastrically given the solution of Composition 1 prepared in this experimental example at a dose of 13.3 mL/kg body weight while the mice in the blank control group were intragastrically given sterile water for medical use at a dose of 13.3 mL/kg body weight. In addition, the mice in negative control group 1 and 2 were respectively intragastrically given the solution of trehalose (0.15 g/mL) and the solution of validamycin (0.3 mg/mL) at the same dose of 13.3 mL/kg body weight. The blood glucose levels before administration and 10 min, 25 min, 40 min and 60 min post administration were measured respectively, and the results were shown in Table 2.

[2] = tested on: normal mice; assay: Enterocinesia in normal mice (carbon powder movement in small intestine); format: in vivo; details: 13.3 mL/kg intragastric; for Movement distance of carbon powder: carbon powder 20 to 30 min later, killed 15 to 20 min after; for Movement distance of carbon powder/full length of small intestine: normal mice
Experimental: (§1) Male ICR mice, 8 weeks old and 20±2 g in body weight, were purchased from Beijing HFK Bioscience Co., Ltd.
Solutions of Compositions 1 to 7 were used in the experiment.
A suspension of carbon powder of 0.1 g/mL was also used. In particular, 1 g of carbon powder was added to and then suspended evenly in 10 mL of normal saline.
After the mice were fed normally for 3 days, they were given no food but water for 18-24 h. By the body weight, the mice were randomly divided into 11 groups, i.e., a blank control group, administration groups 1 to 7 and negative control groups 1 to 3. The mice in administration groups 1 to 7 were respectively intragastrically administered with the solutions of Compositions 1 to 7 at a dose of 13.3 mL/kg body weight while the mice in the blank control group were intragastrically given sterile water for medical use at a dose of 13.3 mL/kg body weight. The mice in negative control groups 1 to 3 were respectively intragastrically administered with the solution of trehalose (0.15 g/mL), the solution of validamycin (0.3 mg/mL) and the solution of algal polysaccharide (0.15 g/ml) at a dose of 13.3 mL/kg body weight. At 20 to 30 min post administration, all mice were intragastrically given the suspension of carbon powder at a dose of 0.2 mL/10 g body weight. At 15 to 20 min post the administration of the carbon powder suspension, the mice were killed by cervical vertebrae dislocation and then were quickly dissected to separate the small intestines. The movement distance of the carbon powder (the distance measured from the carbon powder at the forefront to the end of the duodenum closer to heart) and the full length of the small intestine were measured.

[3] = tested on: normal mice; assay: Defecation quantity and body weight changes in normal mice (sliming); format: in vivo
Experimental: as §1
The solutions of Compositions 1 to 7 prepared in this example were used.
After the mice were fed normally for 3 days, they were given no food but water for 4 h. By body weight, they were randomly divided into 11 groups, i.e., a blank control group, administration groups 1 to 7 and negative control groups 1 to 3. The mice in administration groups 1 to 7 were intragastrically administered with the solutions of Compositions 1 to 7 respectively at a dose of 13.3 mL/kg body weight. On the other hand, the mice in the blank control group were intragastrically given sterile water for medical use at a dose of 13.3 mL/kg body weight. Further, the mice in negative control groups 1 to 3 were intragastrically given the solution of trehalose (0.15 g/mL), the solution of validamycin (0.3 mg/mL) and the solution of algal polysaccharides (0.15 g/mL) respectively at a dose of 13.3 mL/kg body weight. At 20 to 30 min post administration, mice were allowed to eat freely and the defecation quantity in the mice from each group before and after administration (average feces quantity of the mice in each group), the percentages of defecation quantities before and after administration based on the total defecation quantities throughout the experiment and the body weight were recorded.

[4] = tested on: normal mice; assay: Loaded swimming in normal mice; format: in vivo; details: 2 g weight on tail, 20 min after 13.3 mL/kg intragastric
From the text: Female ICR mice, 8 weeks old and 20±2 g in body weight, were purchased from Beijing HFK Bioscience Co., Ltd.
The solutions of Composition 1 to 7 prepared in this example were used.
After the mice were fed normally for 3 days, they were randomly divided into 11 groups by body weight, i.e., a blank control group, administration groups 1 to 7 and negative control groups 1 to 3. The mice in administration groups 1 to 7 were intragastrically administered with the solution of Compositions 1 to 7 respectively a dose of 13.3 mL/kg body weight while the mice in the blank control group were intragastrically given sterile water for medical use at a dose of 13.3 mL/kg body weight. The mice in negative control groups 1 to 3 were intragastrically given the solution of trehalose (0.15 g/mL), the solution of validamycin (0.3 mg/mL) and the solution of algal polysaccharides (0.15 g/mL) respectively at a dose of 13.3 mL/kg body weight. Twenty minutes after the administration, a weight of 2 g was fixed to the tail of each mouse and the mice were put into a pool to swim with load. The bath temperature was 25±2° C., and the depth was more than 30 cm. The survival time in the loaded swimming was recorded (when all parts of a mouse were under water for 10 s, the mouse was considered to be unable to rise to the surface).

[5] = after administration, 13.3 mL/kg intragastric

Structure (SMILES) | Blood glucose level after administration ([1]; 10 min) [mmol/L] | Blood glucose level after administration ([1]; 25 min) [mmol/L] | Blood glucose level after administration ([1]; 40 min) [mmol/L] | Blood glucose level after administration ([1]; 60 min) [mmol/L] | Blood glucose level before administration [1] [mmol/L] | blood glucose level compared to the blank control group [1] | Movement distance of carbon powder [2] [cm] | Movement distance of carbon powder/full length of small intestine [2] [%] | Body weight [3, 5] [g] | Percentage of defecation quantity in each stage based the total defecation quantity [3, 5] [%] | defecation quantity [3, 5] [g] | Body weight ([3]; before administration) [g] | Percentage of defecation quantity in each stage based the total defecation quantity ([3]; before administration) [%] | defecation quantity ([3]; before administration) [g] | Survival time [4] [min]
OC[C@H]1O[C@H](O[C@H]2O[C@H](CO)[C@@H](O)[C@H](O)[C@H]2O)[C@H](O)[C@@H](O)[C@@H]1O [trehalose] | 6.4 ± 0.40 | 9.5 ± 1.00 | 11.0 ± 0.30 | 9.5 ± 1.12 | 4.9 ± 0.53 | increased significantly | 33.6 ± 3.40 | 71.9 ± 8.20 | 19.10 | 37.84 | 0.70 ± 0.01 | 19.80 | 62.16 | 1.15 ± 0.03 | 13.45 ± 2.54
OCC1=C[C@H](N[C@H]2C[C@H](CO)[C@@H](O[C@@H]3O[C@H](CO)[C@@H](O)[C@H](O)[C@H]3O)[C@H](O)[C@H]2O)[C@H](O)[C@@H](O)[C@@H]1O [validamycin] | 5.3 ± 0.45 | 5.7 ± 0.56 | 5.2 ± 0.23 | 5.3 ± 0.20 | 5.2 ± 0.44 | no significant difference | 29.3 ± 2.34 | 66.3 ± 6.57 | 19.45 | 35.26 | 0.67 ± 0.05 | 20.12 | 64.74 | 1.23 ± 0.04 | 12.54 ± 1.08
